Results taken from patent US11716974B2, “Human liver chimeric mouse with deficient P450 oxidoreductase” (Baylor College of Medicine, priority 2016, dated 2023).

Assays:
[1] = Gefitinib metabolites M4 and M28 in feces of humanized (Hu-PIRF) and control mice (mass spectrometry); assay type: in vivo, human liver chimeric mouse
Procedure: Feces samples were weighted and homogenized in water (100 mg feces in 1,000 μl of H2O). Subsequently, 300 μl of methanol was added to 100 μl of the resulting mixture, followed by centrifugation at 15,000 g for 20 min. The supernatant was transferred to a new Eppendorf vial for a second centrifugation (15,000 g for 20 min). The final concentration of agomelatine is 2 μM. Each supernatant was transferred to an auto sampler vial for analysis (described below).
The column temperature was maintained at 40° C. The flow rate of was 0.3 mL/min with a gradient ranging from 2% to 98% aqueous acetonitrile containing 0.1% formic acid in a 15-min run. Quadrupole time of flight mass spectrometry (QTOFMS) was operated in positive mode with electrospray ionization. Ultra-highly pure nitrogen was applied as the drying gas (12 L/min) and the collision gas. The drying gas temperature was set at 325° C. and nebulizer pressure was kept at 35 psi. The capillary voltages were set at 3.5 kV. During mass spectrometry, real time mass correction and accurate mass were achieved by continuously measuring standard reference ions at m/z 121.0508, 922.0098 in the positive mode. Mass chromatograms and mass spectra were acquired by MassHunter Workstation data Acquisition software (Agilent, Santa Clara, Calif.) in centroid and profile formats from m/z 50 to 1000. The acquisition rate was set as 1.5 spectra per second. […] Meanwhile, the quality control samples were performed every 10 samples in the process of the sample running. Due to the authentic compounds of metabolites not available, the metabolite identification was based on their exact mass and MS/MS fragments. The chromatograms and relative abundance of metabolite were performed on Qualitative Analysis software (Agilent, Santa Clara, Calif.). The relative abundance was evaluated based on integrated peak area of each metabolite.

[2] = Liver enzymes after gefitinib; details: mouse, in vivo
[3] = Troglitazone phase II metabolites in livers of humanized and non-humanized mice with and without Por and Ugdh deletion; assay type: in vivo, mouse; details: liver
Procedure: Percentage of liver glucuronidated and sulfated metabolites detected in humanized livers 2 hours after i.p injection of troglitazone (600 mg/kg). FIG. 25A. Humanized FRG mice. FIG. 25B. Humanized FRG mice after murine Por and Ugdh deletion. FIG. 25C. Non-humanized FRG mice. FIG. 25D. Non-humanized FRG mice with Por and Ugdh genes deleted. Sulfate metabolites of troglitazone in red and glucuronide conjugates in blue.
Troglitazone metabolites (two hours after i.p. injection of 600 mg/kg troglitazone) in the livers of humanized and non-humanized FRG mice with and without Por and Ugdh deletion was analyzed.

level of metabolite M4 in feces ([1]; murine Por-deficient Hu-PIRF mice versus Por-expressing humanized and non-humanized control mice) | level of human-specific metabolite M28 in feces ([1]; murine Por-deficient Hu-PIRF mice versus control groups) | glucuronide conjugates in non-humanized livers of control mice versus humans or humanized mice ([3]; two hours after i.p. injection of 600 mg/kg) | glucuronide conjugates upon deletion of ugdh and por ([3]; non-humanized and humanized mice, two hours after i.p. 600 mg/kg) | SMILES | elevation of liver enzymes [2]
highest level | highest level | – | – | COc1cc2ncnc(Nc3ccc(F)c(Cl)c3)c2cc1OCCCN1CCOCC1 [gefitinib] | did not cause any elevation of liver enzymes
– | – | much higher amounts | reduced significantly | Cc1c(C)c2c(c(C)c1O)CCC(C)(COc1ccc(CC3SC(=O)NC3=O)cc1)O2 (centres unmarked) [troglitazone] | –
